Laboratory results published in US20070128217A1 (priority 2003, published 2007).

Key:
[1] = test system: control sera (pooled serum of ten healthy LUMC hospital workers; commercial negative donor pooled serum from the Dutch bloodbank); type: binding, human; design: Binding of Control serum LUMC to linear peptides / Binding of Control serum Blood-bank to linear peptides / Binding of Control serum LUMC to looped peptides / Binding of Control Serum Blood-Bank to Looped peptides / Binding of Control serum LUMC to linear peptides of the protein M of SARS-CoV Urbani / Binding of Control serum Blood-bank to linear peptides of the protein M of SARS-CoV Urbani / Binding of Control serum LUMC to looped peptides of the protein M of SARS-CoV Urbani / Binding of Control Serum Blood-Bank to Looped peptides of the protein M of SARS-CoV Urbani: unit not given here
[2] = test system: rabbit serum obtained by immunizing a rabbit with the SARS-CoV strain Frankfurt 1; type: binding; design: Binding of a rabbit serum to linear peptides / Binding of a rabbit serum to looped peptides / Rabbit serum linear peptides / Rabbit serum looped peptides / Binding of a rabbit serum to linear peptides of protein N of SARS-CoV Urbani (Rabbit serum linear peptides) / Binding of a rabbit serum to looped/cyclic peptides of protein N of SARS-CoV Urbani (Rabbit serum looped peptides): unit not given here
[3] = test system: antibodies in sera from SARS patients (sera 1a, 1b, 2, 6, 37, 62, London, SARS-yellow, SARS-green); type: binding, human; design: Binding of serum 6 to linear peptides of protein X1 of SARS-CoV Urbani / Binding of serum 37 to linear peptides of protein X1 of SARS-CoV Urbani / Binding of serum 6 to looped/cyclic peptide (PEPSCAN-ELISA) / Binding of serum 37 to looped/cyclic peptide (PEPSCAN-ELISA) / Binding of serum 37 to looped/cyclic peptides of protein X1 of SARS-CoV Urbani / Binding of serum 6 to linear peptides of protein X2 / Binding of serum 37 to linear peptides of protein X2 / Binding of serum 37 to looped/cyclic peptides of protein X2 of SARS-CoV Urbani / Binding of serum 6 to linear peptides of protein M of SARS-CoV Urbani / Binding of serum 37 to linear peptides of protein M of SARS-CoV Urbani / Binding of serum 6 to looped/cyclic peptides of protein M of SARS-CoV Urbani / Binding of serum 37 to looped/cyclic peptides of protein M of SARS-CoV Urbani / Binding of serum 6 to linear peptides of protein X3 of SARS-CoV Urbani / Binding of serum 37 to linear peptides of protein X3 of SARS-CoV Urbani / Binding of serum 37 to looped/cyclic peptides of protein X3 of SARS-CoV Urbani / Binding of serum 6 to linear peptides of protein X4 of SARS-CoV Urbani / Binding of serum 37 to linear peptides of protein X4 of SARS-CoV Urbani / Binding of serum 37 to looped/cyclic peptides of protein X4 of SARS-CoV Urbani / Binding of serum 6 to linear peptides of protein X5 of SARS-CoV Urbani / Binding of serum 37 to linear peptides of protein X5 of SARS-CoV Urbani / Binding of serum 37 to looped/cyclic peptides of protein X5 of SARS-CoV Urbani / Binding of serum 6 to linear peptides of protein N of SARS-CoV Urbani / Binding of serum 37 to linear peptides of protein N of SARS-CoV Urbani / Binding of serum 6 to linear peptide (PEPSCAN-ELISA) / Binding of serum 1a to looped/cyclic peptides of protein N of SARS-CoV Urbani / Binding of serum 1b to looped/cyclic peptides of protein N of SARS-CoV Urbani / Binding of serum 2 to looped/cyclic peptides of protein N of SARS-CoV Urbani / Binding of serum 6 to looped/cyclic peptides of protein N of SARS-CoV Urbani / Binding of serum 37 to looped/cyclic peptides of protein N of SARS-CoV Urbani / Binding of serum 62 to looped/cyclic peptides of protein N of SARS-CoV Urbani / Binding of serum London to looped/cyclic peptides of protein N of SARS-CoV Urbani / Binding of serum SARS-green to looped/cyclic peptides of protein N of SARS-CoV Urbani: unit not given here

## IVVTEGDGISTPKLK
[1]
  Binding of Control Serum Blood-Bank to Looped peptides: 0.3
  Binding of Control serum Blood-bank to linear peptides: 0.3
  Binding of Control serum LUMC to linear peptides: 0.3
  Binding of Control serum LUMC to looped peptides: 0.3
[2]
  Binding of a rabbit serum to linear peptides: 0.1
  Binding of a rabbit serum to looped peptides: 0.4
[3]
  Binding of serum 1a to linear peptides of protein X1 of SARS-CoV Urbani: 0.5
  Binding of serum 1a to looped/cyclic peptides of protein X1 of SARS-CoV Urbani: 0.3
  Binding of serum 1b to linear peptides of protein X1 of SARS-CoV Urbani: 0.5
  Binding of serum 1b to looped/cyclic peptides of protein X1 of SARS-CoV Urbani: 0.2
  Binding of serum 2 to linear peptides of protein X1 of SARS-CoV Urbani: 0.3
  Binding of serum 2 to looped/cyclic peptides of protein X1 of SARS-CoV Urbani: 0.1
  Binding of serum 6 to linear peptides of protein X1 of SARS-CoV Urbani: 0.4
  Binding of serum 6 to looped/cyclic peptides of protein X1 of SARS-CoV Urbani: 0.1
  Binding of serum 37 to linear peptides of protein X1 of SARS-CoV Urbani: 0.5
  Binding of serum 37 to looped/cyclic peptides of protein X1 of SARS-CoV Urbani: 0.2
  Binding of serum 62 to linear peptides of protein X1 of SARS-CoV Urbani: 0.3
  Binding of serum 62 to looped/cyclic peptides of protein X1 of SARS-CoV Urbani: 0.3
  Binding of serum London to linear peptides of protein X1 of SARS-CoV Urbani: 0.2
  Binding of serum London to looped/cyclic peptides of protein X1 of SARS-CoV Urbani: 0.1
  Binding of serum SARS-green to linear peptides of protein X1 of SARS-CoV Urbani: 0.1
  Binding of serum SARS-green to looped/cyclic peptides of protein X1 of SARS-CoV Urbani: 0.0
  Binding of serum SARS-yellow to linear peptides of protein X1 of SARS-CoV Urbani: 0.1
  Binding of serum SARS-yellow to looped/cyclic peptides of protein X1 of SARS-CoV Urbani: 0.1

## RGTIVTRPLMESELV
[1]
  Binding of Control Serum Blood-Bank to Looped peptides of the protein M of SARS-CoV Urbani: 0.6
  Binding of Control serum Blood-bank to linear peptides of the protein M of SARS-CoV Urbani: 0.7
  Binding of Control serum LUMC to linear peptides of the protein M of SARS-CoV Urbani: 0.4
  Binding of Control serum LUMC to looped peptides of the protein M of SARS-CoV Urbani: 0.8
[2]
  Rabbit serum linear peptides: 0.3
  Rabbit serum looped peptides: 0.3
[3]
  Binding of serum 1a to linear peptides of protein M of SARS-CoV Urbani: 0.9
  Binding of serum 1b to linear peptides of protein M of SARS-CoV Urbani: 0.6
  Binding of serum 2 to linear peptides of protein M of SARS-CoV Urbani: 0.6
  Binding of serum 6 to linear peptides of protein M of SARS-CoV Urbani: 0.4
  Binding of serum 37 to linear peptides of protein M of SARS-CoV Urbani: 0.9
  Binding of serum 62 to linear peptides of protein M of SARS-CoV Urbani: 0.9
  Binding of serum London to linear peptides of protein M of SARS-CoV Urbani: 0.3
  Binding of serum SARS-green to linear peptides of protein M of SARS-CoV Urbani: 0.3
  Binding of serum SARS-yellow to linear peptides of protein M of SARS-CoV Urbani: 0.1
  Recognition of the peptide by sera of SARS-CoV infected individuals, and form (linear, looped/cyclic) in which it is recognized: recognized in looped/cyclic form

## LKTHRMCKYTQSTAL
[1]
  Binding of Control Serum Blood-Bank to Looped peptides: 0.7
  Binding of Control serum Blood-bank to linear peptides: 0.7
  Binding of Control serum LUMC to linear peptides: 0.6
  Binding of Control serum LUMC to looped peptides: 0.6
[2]
  Binding of a rabbit serum to linear peptides: 0.4
  Binding of a rabbit serum to looped peptides: 0.5
[3]
  Binding of serum 1a to linear peptides of protein X2: 0.8
  Binding of serum 1a to looped/cyclic peptides of protein X2 of SARS-CoV Urbani: 0.6
  Binding of serum 1b to linear peptides of protein X2: 0.6
  Binding of serum 1b to looped/cyclic peptides of protein X2 of SARS-CoV Urbani: 0.6
  Binding of serum 2 to linear peptides of protein X2: 0.5
  Binding of serum 2 to looped/cyclic peptides of protein X2 of SARS-CoV Urbani: 0.4
  Binding of serum 6 to linear peptides of protein X2: 0.6
  Binding of serum 6 to looped/cyclic peptides of protein X2 of SARS-CoV Urbani: 0.5
  Binding of serum 37 to linear peptides of protein X2: 0.7
  Binding of serum 37 to looped/cyclic peptides of protein X2 of SARS-CoV Urbani: 0.5
  Binding of serum 62 to linear peptides of protein X2: 0.7
  Binding of serum 62 to looped/cyclic peptides of protein X2 of SARS-CoV Urbani: 0.6
  Binding of serum London to linear peptides of protein X2: 0.5
  Binding of serum London to looped/cyclic peptides of protein X2 of SARS-CoV Urbani: 0.2
  Binding of serum SARS-green to linear peptides of protein X2: 0.5
  Binding of serum SARS-green to looped/cyclic peptides of protein X2 of SARS-CoV Urbani: 0.3
  Binding of serum SARS-yellow to linear peptides of protein X2: 0.8
  Binding of serum SARS-yellow to looped/cyclic peptides of protein X2 of SARS-CoV Urbani: 0.6

## SCELYHYQECVRGTT
[1]
  Binding of Control Serum Blood-Bank to Looped peptides: 0.6
  Binding of Control serum Blood-bank to linear peptides: 0.5
  Binding of Control serum LUMC to linear peptides: 0.3
  Binding of Control serum LUMC to looped peptides: 0.8
[2]
  Rabbit serum linear peptides: 0.4
  Rabbit serum looped peptides: 0.0
[3]
  Binding of serum 1a to linear peptides of protein X4 of SARS-CoV Urbani: 0.8
  Binding of serum 1a to looped/cyclic peptides of protein X4 of SARS-CoV Urbani: 0.5
  Binding of serum 1b to linear peptides of protein X4 of SARS-CoV Urbani: 0.6
  Binding of serum 1b to looped/cyclic peptides of protein X4 of SARS-CoV Urbani: 0.4
  Binding of serum 2 to linear peptides of protein X4 of SARS-CoV Urbani: 0.4
  Binding of serum 2 to looped/cyclic peptides of protein X4 of SARS-CoV Urbani: 0.5
  Binding of serum 6 to linear peptides of protein X4 of SARS-CoV Urbani: 0.5
  Binding of serum 6 to looped/cyclic peptides of protein X4 of SARS-CoV Urbani: 0.5
  Binding of serum 37 to linear peptides of protein X4 of SARS-CoV Urbani: 0.7
  Binding of serum 37 to looped/cyclic peptides of protein X4 of SARS-CoV Urbani: 0.6
  Binding of serum 62 to linear peptides of protein X4 of SARS-CoV Urbani: 0.6
  Binding of serum 62 to looped/cyclic peptides of protein X4 of SARS-CoV Urbani: 0.5
  Binding of serum London to linear peptides of protein X4 of SARS-CoV Urbani: 0.8
  Binding of serum London to looped/cyclic peptides of protein X4 of SARS-CoV Urbani: 0.3
  Binding of serum SARS-green to linear peptides of protein X4 of SARS-CoV Urbani: 0.5
  Binding of serum SARS-green to looped/cyclic peptides of protein X4 of SARS-CoV Urbani: 0.2
  Binding of serum SARS-yellow to linear peptides of protein X4 of SARS-CoV Urbani: 0.2
  Binding of serum SARS-yellow to looped/cyclic peptides of protein X4 of SARS-CoV Urbani: 0.2

## LLYDANYFVCWHTHN
[1]
  Binding of Control Serum Blood-Bank to Looped peptides: 0.6
  Binding of Control serum Blood-bank to linear peptides: 0.8
  Binding of Control serum LUMC to linear peptides: 0.7
  Binding of Control serum LUMC to looped peptides: 0.5
[2]
  Binding of a rabbit serum to linear peptides: 0.1
  Binding of a rabbit serum to looped peptides: 0.5
[3]
  Binding of serum 1a to linear peptides of protein X1 of SARS-CoV Urbani: 0.9
  Binding of serum 1a to looped/cyclic peptide (PEPSCAN-ELISA): 0.6
  Binding of serum 1b to linear peptides of protein X1 of SARS-CoV Urbani: 0.7
  Binding of serum 1b to looped/cyclic peptide (PEPSCAN-ELISA): 0.5
  Binding of serum 2 to linear peptides of protein X1 of SARS-CoV Urbani: 0.6
  Binding of serum 2 to looped/cyclic peptide (PEPSCAN-ELISA): 0.4
  Binding of serum 6 to linear peptides of protein X1 of SARS-CoV Urbani: 0.7
  Binding of serum 6 to looped/cyclic peptide (PEPSCAN-ELISA): 0.4
  Binding of serum 37 to linear peptides of protein X1 of SARS-CoV Urbani: 0.7
  Binding of serum 37 to looped/cyclic peptide (PEPSCAN-ELISA): 0.6
  Binding of serum 62 to linear peptides of protein X1 of SARS-CoV Urbani: 0.8
  Binding of serum 62 to looped/cyclic peptide (PEPSCAN-ELISA): 0.6
  Binding of serum London to linear peptides of protein X1 of SARS-CoV Urbani: 0.4
  Binding of serum London to looped/cyclic peptide (PEPSCAN-ELISA): 0.2
  Binding of serum SARS-green to linear peptides of protein X1 of SARS-CoV Urbani: 0.4
  Binding of serum SARS-green to looped/cyclic peptide (PEPSCAN-ELISA): 0.3
  Binding of serum SARS-yellow to linear peptides of protein X1 of SARS-CoV Urbani: 0.5
  Binding of serum SARS-yellow to looped/cyclic peptide (PEPSCAN-ELISA): 0.4
